Assay results reported in US9556121B2, “Pyridyloxyalkyl carboxamides and use thereof as endoparasiticides and nematicides” (BAYER CROPSCIENCE AG, priority 2012, dated 2017).

Experiments:
Format in all cases: in vivo
Haemonchus contortus = Haemonchus contortus test (HAEMCO), larval kill; settings: for effect (kill in %): application rate 20 ppm, after 5 days, about 40 larvae; for inhibition at 20 ppm: Haemonchus contortus, 120 h, HAEMCO, 5 dat
Experimental: Haemonchus contortus Test (HAEMCO)
(§1) Solvent: dimethyl sulphoxide
(§2) To produce a suitable preparation of active compound, 10 mg of active compound are mixed with 0.5 ml of dimethyl sulphoxide, and the concentrate is diluted with Ringer solution to the desired concentration.
Vessels containing the active compound preparation of the desired concentration are populated with about 40 larvae of the red stomach worm (Haemonchus contortus).
(§3) After 5 days, the kill in % is determined. 100% means that all of the larvae have been killed; 0% means that none of the larvae have been killed.

Meloidogyne incognita = Meloidogyne incognita test (MELGIN), gall formation on lettuce; settings: application rate 20 ppm, after 14 days, sand, egg/larvae suspension
Experimental: Meloidogyne incognita Test (MELGIN)
Solvent: 125.0 parts by weight of acetone
To prepare a suitable active compound preparation, 1 part by weight of active compound is mixed with the stated amount of solvent and the concentrate is diluted with water to the desired concentration.
Vessels are filled with sand, active compound solution, an egg/larvae suspension of the root-knot nematode (Meloidogyne incognita) and lettuce seeds. The lettuce seeds germinate and the plants develop. On the roots, galls are formed.
After 14 days, the nematicidal effect in % is determined by the formation of galls. 100% means that no galls have been found; 0% means that the number of galls on the treated plants corresponds to the untreated control.

Cooperia curticei = Cooperia curticei test (COOPCU), larval kill; settings: for effect (kill in %): after 5 days, about 40 nematode larvae; for inhibition at 20 ppm: Cooperia curticei, 120 h, COOPCU, 5 dat
Experimental: Cooperia curticei Test (COOPCU)
as §1, §2
Vessels containing the active compound preparation of the desired concentration are populated with about 40 nematode larvae (Cooperia curticei).
as §3

| Compound | effect (kill in %) (Haemonchus contortus) [%] | effect (kill in %) (Cooperia curticei; application rate 20 ppm) [%] | other results |
| --- | --- | --- | --- |
| O=C(NCCOc1ncc(Cl)cc1Cl)c1sccc1I [1-22] | 100 |  |  |
| O=C(NCCOc1ncc(Cl)cc1Cl)c1c(F)cccc1F [1-19] | 90 |  |  |
| O=C(NCCOc1ccc(Cl)cn1)c1ccccc1Br [1-33] | 80 |  |  |
| O=C(NCCOc1ccc(C(F)(F)F)cn1)c1ccccc1I [1-44] | 100 |  |  |
| O=C(NCCOc1ccc(C(F)(F)F)cn1)c1cccnc1C(F)(F)F [1-57] | 80 |  |  |
| O=C(NCCOc1ncc(F)cc1F)c1c(F)cccc1F [1-133] |  |  | nematicidal effect in % (formation of galls) (Meloidogyne incognita): 90% |
| O=C(NC1(COc2ccc(C(F)(F)F)cn2)CC1)c1ccccc1Br [1-176] | 90 | 90 |  |
| O=C(NC1(COc2ccc(C(F)(F)F)cn2)CC1)c1c(F)cccc1F [1-168] | 90 | 100 |  |
| O=C(NCCOc1ncc(C(F)(F)F)cc1Cl)c1c(F)cccc1F [1-52] | 90 |  |  |
| O=C(NCCOc1ccc(Cl)cn1)c1ccccc1C(F)(F)F [1-36] | 80 |  | effect (kill in %) (Cooperia curticei; application rate 100 ppm): 90% |
| O=C(NCCOc1ncc(Cl)cc1Cl)c1ccccc1F [1-15] | 80 |  |  |
| O=C(NC1(COc2ccc(C(F)(F)F)cn2)CC1)c1ccccc1[N+](=O)[O-] [1-196] | 90 |  |  |
| Cc1ccccc1C(=O)NCCOc1ncc(C(F)(F)F)cc1Cl [1-29] | 80 | 80 |  |
| O=C(NC1(COc2ncc(C(F)(F)F)cc2Cl)CC1)c1ccccc1C(F)(F)F [1-169] | 80 | 80 |  |
| O=C(NCCOc1ncc(C(F)(F)F)cc1Cl)c1ccccc1Cl [1-26] | 100 | 80 |  |
| O=C(NCCOc1ccc(C(F)(F)F)cn1)c1ccccc1C(F)(F)F [1-46] | 100 |  |  |
| O=C(NC1(COc2ncc(C(F)(F)F)cc2Cl)CC1)c1ccccc1[N+](=O)[O-] [1-195] | 80 |  |  |
| N#Cc1cnc(OCCNC(=O)c2c(F)cccc2F)c(F)c1 [1-189] |  |  | nematicidal effect in % (formation of galls) (Meloidogyne incognita): 90% |
| COc1ncccc1C(=O)NCCOc1ncc(C(F)(F)F)cc1Cl [1-155] | 100 | 80 |  |
| O=C(NCCOc1ncc(Cl)cc1Cl)c1ccccc1I [1-18] | 100 |  | nematicidal effect in % (formation of galls) (Meloidogyne incognita): 80% |
| CC(C)(COc1ncc(Cl)cc1Cl)NC(=O)c1ccccc1C(F)(F)F [1-82] | 90 | 90 |  |
| O=C(NCCOc1ccc(Cl)cn1)c1c(F)cccc1F [1-35] | 80 |  | effect (kill in %) (Cooperia curticei; application rate 100 ppm): 80% |
| O=C(NCCOc1ncc(C(F)(F)F)cc1Cl)c1ccccc1I [1-28] | 100 | 100 |  |
| O=C(NCCOc1ccc(C(F)(F)F)cn1)c1sccc1Cl [1-49] |  |  | nematicidal effect in % (formation of galls) (Meloidogyne incognita): 90% |
| O=C(NCCOc1ncc(C(F)(F)F)cc1Cl)c1cccnc1C(F)(F)F [1-63] | 90 | 80 | nematicidal effect in % (formation of galls) (Meloidogyne incognita): 90% |

| Compound | effect (kill in %) (Haemonchus contortus) [%] | effect (kill in %) (Cooperia curticei; application rate 20 ppm) [%] | other results |
| --- | --- | --- | --- |
| O=C(NCCOc1ncc(C(F)(F)F)cc1Cl)c1ccccc1[N+](=O)[O-] [1-53] | 100 |  |  |
| O=C(NCCOc1ccc(C(F)(F)F)cn1)c1c(F)cccc1F [1-45] | 90 |  | effect (kill in %) (Cooperia curticei; application rate 100 ppm): 80% |
| O=C(NCCOc1ncc(C(F)(F)F)cc1Cl)c1ccccc1C(F)F [1-2] | 100 |  |  |
| CC(COc1ncc(C(F)(F)F)cc1Cl)NC(=O)c1cn(C)nc1C(F)F (stereo not shown) [1.239, reference compound] |  |  | inhibition at 20 ppm (Cooperia curticei): 0%; inhibition at 20 ppm (Haemonchus contortus): 0% |
| O=C(NCCOc1ccc(C(F)(F)F)cn1)c1ccccc1Cl [1-42] | 80 |  |  |
| O=C(NC1(COc2ccc(C(F)(F)F)cn2)CC1)c1cccnc1Cl [1-177] |  |  | nematicidal effect in % (formation of galls) (Meloidogyne incognita): 90% |
| CC(COc1ccc(Cl)cc1Cl)NC(=O)c1ccccc1C(F)(F)F (stereo not shown) [4-2, reference compound] |  |  | inhibition at 20 ppm (Cooperia curticei): 0% |
| O=C(NC1(COc2ncc(C(F)(F)F)cc2Cl)CC1)c1c(F)cccc1F [1-167] | 80 |  |  |
| O=C(NCCOc1ncc(F)cc1F)c1ccccc1C(F)(F)F [1-134] |  |  | nematicidal effect in % (formation of galls) (Meloidogyne incognita): 90% |
| O=C(NCCOc1ncc(F)cc1F)c1ccccc1I [1-141] |  |  | nematicidal effect in % (formation of galls) (Meloidogyne incognita): 90% |
| O=C(NCCOc1ncc(Cl)cc1Cl)c1ccccc1Cl [1-16] | 100 |  |  |
| CC(CNC(=O)c1ccccc1C(F)(F)F)Oc1ncc(C(F)(F)F)cc1Cl (stereo not shown) [1-25] | 100 | 90 |  |
| N#Cc1cnc(OCCNC(=O)c2ccccc2C(F)(F)F)c(F)c1 [1-164] | 90 | 90 | nematicidal effect in % (formation of galls) (Meloidogyne incognita): 100% |
| CC(C)(COc1ccc(C(F)(F)F)cn1)NC(=O)c1ccccc1C(F)(F)F [1-78] | 80 | 80 |  |
| O=C(NCCOc1ccc(C(F)(F)F)cn1)c1ccccc1Br [1-43] | 90 |  |  |
| O=C(NCCOc1ncc(Cl)cc1Cl)c1sccc1Cl [1-23] | 80 |  |  |
| O=C(NCCOc1ncc(Cl)cc1Cl)c1ccccc1C(F)(F)F [1-20] | 100 |  |  |
| O=C(NC1(COc2ccc(C(F)(F)F)cn2)CC1)c1ccccc1C(F)(F)F [1-173] | 100 | 100 |  |
| O=C(NCCOc1ncc(C(F)(F)F)cc1Cl)c1ccccc1Br [1-27] | 100 | 90 |  |
| O=C(NCCOc1ncc(C(F)(F)F)cc1Cl)c1ccccc1C(F)(F)F [1-1] | 100 | 100 |  |
| O=C(NCCOc1ccc(C(F)(F)F)cn1)c1sccc1I [1-48] |  | 80 |  |
| O=C(NCCOc1ccc(Cl)cn1)c1ccccc1I [1-34] | 90 |  |  |
| CC(COc1ncc(C(F)(F)F)cc1Cl)NC(=O)c1ccccc1C(F)(F)F (stereo not shown) [1-4] | 90 | 100 | inhibition at 20 ppm (Cooperia curticei): 100%; inhibition at 20 ppm (Haemonchus contortus): 90% |
| O=C(NC1(COc2ncc(C(F)(F)F)cc2Cl)CC1)c1ccccc1I [1-170] | 100 | 100 | nematicidal effect in % (formation of galls) (Meloidogyne incognita): 100% |
